Assay results reported in patent publication US12171776B2, “Methods for treatment and prophylaxis of HIV and AIDS” (Merck Sharp & Dohme LLC, priority 2016, dated 2024).
Like-named read-outs stand apart in the source and are kept apart here.

What was measured:
[1] = Phase I multiple rising dose pharmacokinetics, three once weekly oral doses of EFdA capsules in healthy adults; assay type: in vivo, human; conditions: for AUC0-168 hr / Cmax / Tmax / half-life / AUC(0-t): healthy fasted subjects; for AUC0-168 hr / Cmax / half-life / AUC(0-t): geometric mean (%GCV); for plasma concentration (below LLQ): 10 mg dose, all subjects; for Cmax accumulation ratio Week 3/Week 1: geometric mean (min, max); for Tmax / half-life / AUC(0-t): human; for Tmax: po, median (min, max); for AUC(0-t): read-out: AUC0-168 hr
Method: (§1) Pharmacokinetics of EFdA Following Administration of Oral Doses in Healthy Humans.
(§2) The pharmacokinetics of EFdA were evaluated in Phase I single and multiple rising dose studies. In the single dose study, single oral doses of the oral suspension of EFdA from 5 to 400 mg were administered to three alternating panels of 8 healthy adult subjects. Within each panel, subjects were administered single doses of EFdA (n=6) or matching placebo (n=2) in a blinded fashion in up to 3 treatment periods. Panel A received 15 mg and 200 mg. Panel B received 30 mg, 400 mg, and 30 mg with food. Panel C received 100 mg and 5 mg. In the multiple rising dose study, multiple doses of EFdA oral capsules were administered to three panels of 8 healthy adult subjects. Within each panel, subjects were administered three once weekly doses of EFdA (n=6) or matching placebo (n=2) on Days 1, 8, and 15. Panel A received 10 mg. Panel B received 30 mg, and Panel C received 100 mg.

[2] = in vitro; lymphoid derived cell lines and peripheral blood mononuclear cells; Stoddart et al. 2015; cited from earlier work
SIVmac251 = test: Once-weekly efficacy in an SIV infected rhesus monkey model of HIV-infection; assay type: in vivo; conditions: SIV-infected monkeys
Method: Once-Weekly Efficacy in an SIV Infected Rhesus Monkey Model of HIV-Infection.
Oral efficacy studies were conducted at New Iberia Research Center (NIRC), Lafayette, Louisiana Following treatment with BAYTRIL® (5 mg/kg, IM, SID) for 5 days, 20 monkeys were inoculated intravenously with SIVmac251. After 3 days, venous blood was collected every 2-5 days (2× per week) for viral load testing and monitored to stable viremia (wherein 3 consecutive samples were within 3-fold of each other following acute viremia peak). Plasma SIV viral RNA levels were determined using a branched DNA technique at Siemens Diagnostics, Berkeley, California.
Following determination of stable viremia, SIV-infected monkeys were randomized by age, weight, and viral load (n=3 per group). A 2-arm adaptive design was employed in which results from Arm 1 informed the doses for Arm 2. In Arm 1, animals received two once-weekly doses of vehicle, 1.3 mg/kg EFdA, or 13 mg/kg EFdA administered via oral gavage. In Arm 2, animals received 3.9 mg/kg or 18.2 mg/kg EFdA once-weekly or 0.19 mg/kg EFdA once daily for two weeks. Blood (4 ml) was drawn for viral load determinations during the treatment period on days −2, 0 (dosing day), 1, 2, 3, 5, 7 (dosing day), 8, 9, 10, 12, and 14, and then two times per week for 3 weeks during the washout period. In addition, blood (1 ml) was drawn on days 0 (2 hrs post dose), 1 (24 hr post dose), 7 (2 hrs post dose), and 8 (24 hrs post dose) for EFdA pharmacokinetic assessment.
SIV RNA for genotyping was isolated from 140 μl plasma using the QIAamp Viral RNA Mini kit (Cat #52904/52906). The reverse transcriptase region of SIVmac251 was reverse transcribed and amplified using SuperScript III RT/Platinum polymerase, primers S251RTF1 ([…] [2732-2751]) and S251RTR1 ([…] [4206-4225]) and 8 μl template RNA in 20 μl reactions. A nested PCR reaction was carried out using 3.5 μl of the product from the first reaction with TaKaRa LA Taq and primers S251RTF2 ([…] [2750-2769]) and S251RTR2 ([…] [4169-4188]) in 50 μl reactions. After verifying size of ˜1.5 kb by gel electrophoresis, PCR products were purified using ExoSAP-IT (Affymetrix; cat #78201) and adjusted to 15 ng/ml. PCR products (10 μl) were mixed with 5 μl 5 μM sequencing primers S251RTS5 ([…] [2760-2779]), s251RTS6 ([…] [3266-3285]), or S251RTS7 ([…] [3755-3774]). DNA sequencing was carried out at Genewiz (115 Corporate Blvd, South Plainfield, NJ 07080).

[3] = Phase I single rising dose pharmacokinetics of oral EFdA suspension in healthy adults; assay type: in vivo, human
Method: as §1, §2

HIV-1 = test system: HIV-1
Source text: The single dose monotherapy efficacy of EFDA is currently being evaluated in HIV-1 patients naïve to anti-retroviral treatment.

SIV = conditions: PBMCs isolated from uninfected monkeys 24 hr after drug administration; Stoddart et al. 2015; cited from earlier work
[4] = EFdA-TP in PBMCs, EFdA 10 mg oral once weekly, Week 1
[5] = EFdA-TP in PBMCs, EFdA 30 mg oral once weekly, Week 1
[6] = EFdA-TP in PBMCs, EFdA 30 mg oral once weekly, Week 3
[7] = EFdA-TP in PBMCs, EFdA 100 mg oral once weekly, Week 1
[8] = EFdA-TP in PBMCs, EFdA 100 mg oral once weekly, Week 3
[9] = PBMCs, following multiple doses of 30 mg and 100 mg
[10] = EFdA in plasma, 30 mg oral once weekly, Week 3
[11] = EFdA in plasma, 100 mg oral once weekly, Week 3
[12] = single 10 mg dose, HIV-1 patients, plasma HIV-1 RNA, N=6
[13] = single 10 mg dose, adjusted by pooled historical placebo

Question: Which results are given for C#C[C@]1(COP(=O)(O)OP(=O)(O)OP(=O)(O)O)O[C@@H](n2cnc3c(N)nc(F)nc32)C[C@@H]1O [EFdA-TP, 4′-ethynyl-2-fluoro-2′-deoxyadenosine triphosphate]?
Answer: exposure versus dose ([1]; EFdA-TP in PBMC, EFdA 10, 30, 100 mg once weekly): generally dose-proportional; AUC0-168 hr [1, 4]: 341 (21.2) hr * pmo1/10^6 cells; Cmax [1, 4]: 3.78 (15.3) pmo1/10^6 cells; AUC0-168 hr [1, 5]: 1160 (41.5) hr * pmo1/10^6 cells; Cmax [1, 5]: 13.2 (51.3) pmo1/10^6 cells; AUC0-168 hr [1, 6]: 1570 (12.3) hr * pmo1/10^6 cells; Cmax [1, 6]: 19.6 (13.7) pmo1/10^6 cells; AUC0-168 hr [1, 7]: 3020 (31.3) hr * pmo1/10^6 cells; Cmax [1, 7]: 27.9 (21.2) pmo1/10^6 cells; AUC0-168 hr [1, 8]: 4580 (17.6) hr * pmo1/10^6 cells; Cmax [1, 8]: 43.0 (16.7) pmo1/10^6 cells; accumulation of EFdA-TP AUC0-168hr and Cmax [1, 9]: modest degree of accumulation; accumulation of EFdA-TP C168hr [1, 9]: little to no accumulation; intracellular half-life [2]: exceeds 72 hrs

Question: Which VL suppression maintained (SIVmac251; 3.9 mg/kg QW oral, from Day 7 to Day 14) does the source give for C#C[C@]1(CO)O[C@@H](n2cnc3c(N)nc(F)nc32)C[C@@H]1O [EFdA, 4′-Ethynyl-2-fluoro-2′-deoxyadenosine] here?
Answer: Its VL suppression maintained is 7 days.

Question: And the VL drop (SIVmac251; 3.9 to 18.2 mg/kg QW oral)?
Answer: The VL drop was “close to maximal”.

Question: What about the “VL during the wash-out period” value (SIVmac251; after cessation of dosing) of the same compound?
Answer: The value was “dose-dependent VL rebound”.

Question: And the control of viremia (SIVmac251; once-weekly oral versus once-daily treatment)?
Answer: The control of viremia was “can control viremia with once-weekly oral administration as well as once-daily treatment”.

Question: What about the “effect of food on intracellular pharmacokinetics” value ([3]; 30 mg with food, high-fat meal, single dose) of the same compound?
Answer: The value was “largely unaffected by a high-fat meal”.

Question: And the “plasma exposure versus dose” value ([3]; EFdA in plasma, between 5 and 400 mg single oral dose)?
Answer: Its value is “approximately dose-proportional”.

Question: What about the “median Tmax” value ([3]; EFdA in plasma, single oral doses 5 to 400 mg, healthy adults) of the same compound?
Answer: Its value is 0.5 h.

Question: And the “reduction of plasma Cmax in rapid initial phase” value ([3]; EFdA in plasma, within the first 6-12 hours, single oral dose)?
Answer: Its value is “approximately 10 fold”.

Question: And the half-life ([3]; human, EFdA in plasma, single oral doses 5 to 400 mg, healthy adults, read-out: apparent terminal half-life, slow terminal phase)?
Answer: Its half-life is 50 to 60 h.

Question: And the “plasma concentration (below LLQ)” value ([1]; at 48 hr post-dose and later on week 1)?
Answer: The value was < 0.00341 µM.

Question: And the “plasma concentration (below LLQ)” value ([1]; at 96 hr post-dose or later in week 3)?
Answer: The value was < 0.00341 µM.

Question: What about the Cmax ([1]; EFdA in plasma, 10 mg oral once weekly, Week 1, read-out: Cmax) of the same compound?
Answer: Its Cmax is 0.193 µM.

Question: What about the Cmax ([1]; EFdA in plasma, 10 mg oral once weekly, Week 3, read-out: Cmax) of the same compound?
Answer: Its Cmax is 0.241 µM.

Question: What about the “Cmax accumulation ratio Week 3/Week 1” value ([1]; EFdA in plasma, 10 mg oral once weekly) of the same compound?
Answer: Its value is 1.25 (0.70, 1.66).

Question: And the Cmax ([1]; EFdA in plasma, 30 mg oral once weekly, Week 1, read-out: Cmax)?
Answer: The Cmax was 0.647 µM.

Question: And the Cmax ([1]; EFdA in plasma, 30 mg oral once weekly, Week 3, read-out: Cmax)?
Answer: Its Cmax is 0.637 µM.

Question: And the “Cmax accumulation ratio Week 3/Week 1” value ([1]; EFdA in plasma, 30 mg oral once weekly)?
Answer: Its value is 0.98 (0.73, 1.44).

Question: And the Cmax ([1]; EFdA in plasma, 100 mg oral once weekly, Week 1, read-out: Cmax)?
Answer: Its Cmax is 1.47 µM.

Question: And the Cmax ([1]; EFdA in plasma, 100 mg oral once weekly, Week 3, read-out: Cmax)?
Answer: The Cmax was 1.85 µM.

Question: What about the “Cmax accumulation ratio Week 3/Week 1” value ([1]; EFdA in plasma, 100 mg oral once weekly) of the same compound?
Answer: Its value is 1.26 (0.26, 3.59).

Question: What about the exposure versus dose ([1]; EFdA in plasma, 10, 30, 100 mg once weekly) of the same compound?
Answer: The exposure versus dose was “generally dose-proportional”.

Question: And the Tmax ([1]; plasma, 10 mg, EFdA in plasma, 10 mg oral once weekly, Week 1)?
Answer: The Tmax was 1 h.

Question: And the Tmax ([1]; plasma, 10 mg, EFdA in plasma, 10 mg oral once weekly, Week 3)?
Answer: Its Tmax is 1 h.

Question: What about the Tmax ([1]; plasma, 30 mg, EFdA in plasma, 30 mg oral once weekly, Week 1) of the same compound?
Answer: Its Tmax is 1 h.

Question: What about the Tmax ([1]; plasma, 30 mg, EFdA in plasma, 30 mg oral once weekly, Week 3) of the same compound?
Answer: Its Tmax is 1 h.

Question: What about the Tmax ([1]; plasma, 100 mg, EFdA in plasma, 100 mg oral once weekly, Week 1) of the same compound?
Answer: Its Tmax is 2 h.

Question: And the Tmax ([1]; plasma, 100 mg, EFdA in plasma, 100 mg oral once weekly, Week 3)?
Answer: The Tmax was 1 h.

Question: And the half-life [1, 10]?
Answer: The half-life was 74.1 h.

Question: And the AUC(0-t) [1, 10]?
Answer: The AUC(0-t) was 3.97 µM·h.

Question: What about the half-life [1, 11] of the same compound?
Answer: The half-life was 87.1 h.

Question: What about the AUC(0-t) [1, 11] of the same compound?
Answer: Its AUC(0-t) is 12 µM·h.

Question: What about the “accumulation of EFdA in plasma” value ([1]; plasma, multiple once weekly doses) of the same compound?
Answer: The value was “little to no accumulation”.

Question: What about the “Change from Baseline in Viral Load, Max” value (HIV-1; [12]) of the same compound?
Answer: The value was −1.31 log10 copies/mL.

Question: And the “Change from Baseline in Viral Load, Median” value (HIV-1; [12])?
Answer: Its value is −1.63 log10 copies/mL.

Question: And the “Change from Baseline in Viral Load, Min” value (HIV-1; [12])?
Answer: Its value is −1.97 log10 copies/mL.

Question: What about the “Change from Baseline in Viral Load, LS mean (95% CI)” value (HIV-1; single 10 mg dose, HIV-1 patients, plasma HIV-1 RNA, N=6, LDA model) of the same compound?
Answer: The value was −1.67 (−1.87, −1.47) log10 copies/mL.

Question: And the “PP = Posterior Probability of true mean difference in plasma HIV-1 RNA reduction from baseline between EFDA and placebo at least 0.5 log10 copies/mL” value (HIV-1; [13])?
Answer: Its value is >99.9%.

Question: What about the “Placebo Corrected Change from Baseline in Viral Load, Posterior mean” value (HIV-1; [13]) of the same compound?
Answer: The value was −1.64 log10 copies/mL.

Question: And the “mean (95% CI) placebo adjusted VL reduction” value (HIV-1; single 10 mg dose, at 168 hours post-dose, HIV-1 patients)?
Answer: Its value is 1.67 log 10.

Question: And the “recrudescence of viral load” value (HIV-1; single 10 mg dose, through Day 10)?
Answer: Its value is “no evidence of recrudescence”.

Question: What about the “mean VL reduction” value (HIV-1; single 10 mg dose, through Day 10, HIV-1 patients) of the same compound?
Answer: Its value is 1.78 log 10.

Question: And the tolerability (HIV-1; single 10-mg dose, HIV-1 patients, limited number of mild/moderate adverse experiences)?
Answer: Its tolerability is “generally well tolerated”.

Question: And the “susceptibility of PBMCs to SIV infection” value (SIV)?
Answer: Its value is “refractory to SIV infection”.
